One assay concerns WOSCOPS patients. In words: WOSCOPS nested case-control study: pravastatin vs placebo, primary CHD in subgroups defined by genotype. Type of assay: in vivo, human. Particulars: for Case (patients with coronary event): pravastatin arm; for risk reduction (coronary events) / OR, Effect of Pravastatin on MI and CHD: pravastatin vs placebo. The source says:
In order to identify genetic markers associated with CHD (particularly MI, including recurrent MI) or the effect of statin treatment on CHD, samples were genotyped in two clinical trials: the Cholesterol and Recurrent Events (CARE) study (a randomized multicentral double-blinded trial on secondary prevention of MI with pravastatin (Pravachol®); Sacks et al., Am. J. Cardiol. 68: 1436-1446 [1991]), and the West of Scotland Coronary Prevention Study (WOSCOPS) study (a randomized multicentral double-blinded trial on primary prevention of CHD with pravastatin (Pravachol®); Shepherd et al., N Eng J Med 333 (20), pp. 1301-7, Nov. 16, 1995; Packard et al., N Eng J Med 343 (16), pp. 1148-55, Oct. 19, 2000).
The designs of the original WOSCOPS cohort and the nested case-control study have been described (Shepherd et al., N Eng J Med 333 (20), pp. 1301-7, Nov. 16, 1995; Packard et al., N Eng J Med 343 (16), pp. 1148-55, Oct. 19, 2000). The objective of the WOSCOPS trial was to assess pravastatin efficacy at reducing risk of primary MI or coronary death among Scottish men with hypercholesterolemia (fasting LDL cholesterol>155 mg/dl). Participants in the WOSCOPS study were 45-64 years of age and followed for an average of 4.9 years for coronary events. The nested case-control study included as cases all WOSCOPS patients who experienced a coronary event (confirmed nonfatal MI, death from CHD, or a revascularization procedure; N=580). Controls were age- and smoking-matched to unaffected patients.
In analyzing the CARE patients, statistical analysis was performed with SAS version 9. Cox proportional hazard models (Wald tests) were used in CARE to assess the association of genotype with both the risk of incident MI in the placebo arm and the effect of pravastatin on MI compared to placebo in subgroups defined by genotypes. In analyzing the WOSCOPS patients, a conditional logistic regression model was used in WOSCOPS given that the controls had been previously matched to the cases. The column entitled “On-trial MI” lists the number of patients who suffered a recurrent MI during the clinical trial period.
HR stands for Hazard Ratio, which is a concept similar to Odds Ratio (OR). The HR in event-free survival analysis is the effect of an explanatory variable on the hazard or risk of an event. For examples, it describes the likelihood of developing MI based on comparison of rate of coronary events between carriers of the certain allele and noncarriers; therefore, HR=1.5 would mean that carriers of the certain allele have 50% higher risk of coronary events during the study follow up than non-carriers. HR can also describe the effect of statin therapy on coronary events based on comparison of rate of coronary events between patient treated with statin and patient treated with placebo (or other statin) in subgroups defined by SNP genotype; therefore, HR=0.5 would mean that, for example, carriers of the certain allele, had 50% reduction of coronary events by statin therapy as compared to placebo. In Table 6, p interaction values were calculated. An interaction (or effect modification) is formed when a third variable modifies the relation between an exposure and outcome. […] Genotype and drug interaction is present when the effect of statins (incidence rate of disease in statin-treated group, as compared to placebo) differs in patients with different genotypes. The hCV3054799 risk allele predicted risk of MI in CARE and was associated with odds of CHD in WOSCOPS.

Another assay deals with PROVE-IT patients. In words: PROVE-IT (PROVE IT-TIMI 22) genetic study: high-dose atorvastatin vs standard-dose pravastatin, death or major cardiovascular events by KIF6 719Arg carrier status. In kind it is in vivo, human. The procedure:
Patients were followed for 18 to 36 months, with an average follow-up of 24 months.
Of the 1,724 patients who met the criteria listed above, 1344 (78.0%) were male. […] This study was approved by institutional review boards of the Brigham and Women's Hospital and all participating centers.
KIF6 genotypes were determined using allele—specific real-time PCR as previously described. Cox proportional hazard models (Wald tests) were used to assess the effect of atorvastatin-treatment on incident CHD in the KIF6 719Arg carriers and noncarriers. Continuous variables tested were age, baseline LDL-C, and baseline HDL-C levels. Categorical variables tested were smoking (current versus non-current), hypertension, and baseline diabetes. All reported p values are two-sided.

Regarding `CC[C@H](C)C(=O)O[C@H]1C[C@H](O)C=C2C=C[C@H](C)[C@H](CC[C@@H](O)C[C@@H](O)CC(=O)O)[C@H]21` [Pravastatin, pravastatin], the “OR, Adjusted (CHD, pravastatin vs placebo)” value is 0.91 in the assay with WOSCOPS patients (AA (noncarriers), matched and adjusted); 0.50 with WOSCOPS patients (GG + GA (719Arg carriers), matched and adjusted for hypertension, diabetes, BMI, LDL-C, HDL-C). The “OR, Matched (CHD, pravastatin vs placebo)” value with WOSCOPS patients (AA (noncarriers), matched for age and smoking) is on record as 0.94; with WOSCOPS patients (GG + GA (719Arg carriers), cases and controls matched for age and smoking), 0.50. The “Case (patients with coronary event)” value with WOSCOPS patients (AA, 213 controls) was 81 number of patients; with WOSCOPS patients (GG + GA, 330 controls), 108 number of patients. Moreover, the “risk reduction (coronary events)” value in the assay on WOSCOPS patients (carriers of the KIF6 719Arg allele, significant) is recorded as 50%; in the assay with WOSCOPS patients (noncarriers, insignificant) it was 9%. Also, the “OR, Effect of Pravastatin on MI and CHD” value with WOSCOPS patients (hCV3054808 genotype AA) stood at 0.55; in the assay with WOSCOPS patients (hCV3054808 genotype AC), 0.52; with WOSCOPS patients (hCV3054808 genotype CC), 0.89; in the assay with WOSCOPS patients (hCV3054813 genotype CC), 0.64; with WOSCOPS patients (hCV3054813 genotype CT) it was 0.51; in the assay with WOSCOPS patients (hCV3054813 genotype TT), 0.95. In addition, the “OR, Effect of Pravastatin on MI and CHD” value in the assay on WOSCOPS patients (hCV29992177 genotype AA) stood at 0.71; with WOSCOPS patients (hCV29992177 genotype GA), 0.54; in the assay with WOSCOPS patients (hCV29992177 genotype GG), 2.55; with WOSCOPS patients (hCV30225864 genotype CC), 0.67; with WOSCOPS patients (hCV30225864 genotype CT), 0.54; in the assay with WOSCOPS patients (hCV30225864 genotype TT), 0.78. The “On-trial CHD” value is on record as 123 Number of patients with PROVE-IT patients (ArgArg + ArgTrp, totals 509 (atorvastatin), 502 (pravastatin)) and 80 Number of patients with PROVE-IT patients (TrpTrp, totals 359 (atorvastatin), 352 (pravastatin)).
